We go through 35 compounds from patent publication US20070010671A1, “Novel quinazoline derivatives and methods of treatment related to the use thereof” (priority 2003, published 2007).

Some results are limits rather than exact numbers.

One assay addresses MCH receptor (Homo sapiens, UniProt Q99705). Put plainly: High throughput functional screening FLIPR/FDSS6000: inhibition of MCH-evoked intracellular Ca2+ changes. The assay is classed as cell-based. The settings on record: class by percent of control at 10^-7 M or IC50. The procedure, abridged:
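Constitutively active non-endogenous MCH-R cells; Fluo4-AM 4 μM, 2.5 mM probenecid, 1 hr, 37° C; cpd 3 min, 37° C; MCH 50 nM (antagonist mode); kinetic Ca2+ read Ex488/Em530, 290 s.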
Consider `CN(C)c1nc(N[C@H]2CC[C@@H](CNC(=O)Nc3cc(Cl)nc(Cl)c3)CC2)nc2ccccc12` [compound 773], for which the class was 3 (Class 3: The value of percent of control at 10^−7 M was more than 60% or the value of IC50 was more than 200 nM.).

Consider `CC(C)c1ccc(NC(=S)N[C@H]2CC[C@@H](Nc3nc(N(C)C)c4ccccc4n3)CC2)c(Br)c1` [compound 363, N-(2-bromo-4-isopropylphenyl)-N′-(cis-4-{[4-(dimethylamino)quinazolin-2-yl]amino}cyclohexyl)thiourea], for which the class is 2 (Class 2: The value of percent of control at 10^−7 M was from 40% to 60% or the value of IC50 was from 50 nM to 200 nM.).

On to `CN(C)c1nc(N[C@H]2CC[C@@H](NC(=S)NCCCc3ccccc3)CC2)nc2ccccc12` [compound 264], for which the class is on record as 3 (Class 3: The value of percent of control at 10^−7 M was more than 60% or the value of IC50 was more than 200 nM.).

Regarding `CN(C)c1nc(N[C@H]2CC[C@@H](CNC(=S)Nc3ccc(Br)c(Cl)c3)CC2)nc2ccccc12` [compound 735], the class is recorded as 3 (Class 3: The value of percent of control at 10^−7 M was more than 60% or the value of IC50 was more than 200 nM.).

Turning to `CN(C)c1nc(N[C@H]2CC[C@@H](CNC(=O)Nc3ccc(F)c(Cl)c3)CC2)nc2ccccc12` [compound 529], the class is recorded as 1 (Class 1: The value of percent of control at 10^−7 M was less than 40% or the value of IC50 was less than 50 nM.).

As to `Cc1ccc(NC(=S)N[C@H]2CC[C@@H](Nc3nc(N(C)C)c4ccccc4n3)CC2)cc1C` [compound 369], the class is 3 (Class 3: The value of percent of control at 10^−7 M was more than 60% or the value of IC50 was more than 200 nM.).

With `CC(=O)c1ccc(NC(=S)NC[C@H]2CC[C@@H](Nc3nc(N(C)C)c4ccccc4n3)CC2)cc1` [compound 578], the class was 3 (Class 3: The value of percent of control at 10^−7 M was more than 60% or the value of IC50 was more than 200 nM.).

`CN(C)c1nc(N[C@H]2CC[C@@H](NC(=S)Nc3ccccc3OC(F)(F)F)CC2)nc2ccccc12` [compound 207, N-(cis-4-{[4-(dimethylamino)quinazolin-2-yl]amino}cyclohexyl)-N′-[2-(trifluoromethoxy)phenyl]thiourea]: the class is recorded as 2 (Class 2: The value of percent of control at 10^−7 M was from 40% to 60% or the value of IC50 was from 50 nM to 200 nM.).

`Cc1ccc(C)c(NC(=S)NC[C@H]2CC[C@@H](Nc3nc(N(C)C)c4ccccc4n3)CC2)c1` [compound 783, N-[(cis-4-{[4-(dimethylamino)quinazolin-2-yl]amino}cyclohexyl)methyl]-N′-(2,5-dimethylphenyl)thiourea]: the class is reported as 2 (Class 2: The value of percent of control at 10^−7 M was from 40% to 60% or the value of IC50 was from 50 nM to 200 nM.).

Take `CN(C)c1nc(N[C@H]2CC[C@@H](NC(=O)Nc3ccc(OC(F)(F)F)cc3)CC2)nc2ccccc12` [compound 332]: the class is 3 (Class 3: The value of percent of control at 10^−7 M was more than 60% or the value of IC50 was more than 200 nM.).

As for `CN(C)c1nc(N[C@H]2CC[C@@H](CNC(=O)Nc3c(Cl)cccc3Cl)CC2)nc2ccccc12` [compound 483, N-(2,6-dichlorophenyl)-N′-[(cis-4-{[4-(dimethylamino)quinazolin-2-yl]amino}cyclohexyl)methyl]urea], the class is on record as 1 (Class 1: The value of percent of control at 10^−7 M was less than 40% or the value of IC50 was less than 50 nM.).

As to `CN(C)c1nc(N[C@H]2CC[C@@H](CNC(=S)Nc3ccccc3C#N)CC2)nc2ccccc12` [compound 723], the class was 3 (Class 3: The value of percent of control at 10^−7 M was more than 60% or the value of IC50 was more than 200 nM.).

For the compound `CN(C)c1ccc(NC(=O)N[C@H]2CC[C@@H](Nc3nc(N(C)C)c4ccccc4n3)CC2)cc1` [compound 351], the class was 3 (Class 3: The value of percent of control at 10^−7 M was more than 60% or the value of IC50 was more than 200 nM.).

Regarding `COc1ccc(NC(=S)NC[C@H]2CC[C@@H](Nc3nc(N(C)C)c4ccccc4n3)CC2)cc1OC` [compound 628], the class is recorded as 3 (Class 3: The value of percent of control at 10^−7 M was more than 60% or the value of IC50 was more than 200 nM.).

`CN(C)c1nc(N[C@H]2CC[C@@H](CNC(=S)Nc3ccc(S(N)(=O)=O)cc3)CC2)nc2ccccc12` [compound 742]: the class is recorded as 3 (Class 3: The value of percent of control at 10^−7 M was more than 60% or the value of IC50 was more than 200 nM.).

Consider `CN(C)c1nc(N[C@H]2CC[C@@H](NC(=O)Nc3ccc4c(c3)OCCCO4)CC2)nc2ccccc12` [compound 343, N-(3,4-dihydro-2H-1,5-benzodioxepin-7-yl)-N′-(cis-4-{[4-(dimethylamino)quinazolin-2-yl]amino}cyclohexyl)urea], for which the class is recorded as 1 (Class 1: The value of percent of control at 10^−7 M was less than 40% or the value of IC50 was less than 50 nM.).

Regarding `CN(C)c1nc(N[C@H]2CC[C@@H](CNC(=S)NC3C[C@@H]4CC[C@H]3C4)CC2)nc2ccccc12` (stereo partly drawn) [compound 663, N-[(1S,4R)-bicyclo[2.2.1]hept-2-yl]-N′-[(cis-4-{[4-(dimethylamino)quinazolin-2-yl]amino}cyclohexyl)methyl]thiourea], the class is reported as 2 (Class 2: The value of percent of control at 10^−7 M was from 40% to 60% or the value of IC50 was from 50 nM to 200 nM.).

Still in this assay, the particulars now being: class by percent of control at 10^-7 M or by IC50; read-out: class.
On to `CC(C)CNC(=S)N[C@H]1CC[C@@H](Nc2nc(N(C)C)c3ccccc3n2)CC1` [compound 178, N-(cis-4-{[4-(dimethylamino)quinazolin-2-yl]amino}cyclohexyl)-N′-isobutylthiourea], for which the IC50 was in the range of 50 to 200 nM.

With `CCc1ccc(NC(=O)N[C@H]2CC[C@@H](Nc3nc(N(C)C)c4ccccc4n3)CC2)cc1` [compound 31, N-(cis-4-{[4-(dimethylamino)quinazolin-2-yl]amino}cyclohexyl)-N′-(4-ethylphenyl)urea], the IC50 is 50 to 200 nM.

As to `CN(C)c1nc(N[C@H]2CC[C@@H](CNC(=S)Nc3ccc(F)c(Cl)c3)CC2)nc2ccccc12` [compound 804], the IC50 is more than 200 nM.

On to `COC(=O)N[C@H]1CC[C@@H](Nc2nc(N(C)C)c3ccccc3n2)CC1` [compound 862], for which the IC50 was more than 200 nM.

For the compound `COc1ccccc1NC(=O)N[C@H]1CC[C@@H](Nc2nc(N(C)C)c3ccccc3n2)CC1` [compound 45, N-(cis-4-{[4-(dimethylamino)quinazolin-2-yl]amino}cyclohexyl)-N′-(2-methoxyphenyl)urea], the IC50 was in the range of 50 to 200 nM.

For the compound `CN(C)c1nc(N[C@H]2CC[C@@H](NC(=O)Nc3cc(F)cc(C(F)(F)F)c3)CC2)nc2ccccc12` [compound 133], the IC50 was more than 200 nM.

In the case of `CN(C)c1nc(N[C@H]2CC[C@@H](NC(=O)OCc3ccc([N+](=O)[O-])cc3)CC2)nc2ccccc12` [compound 855], the IC50 is less than 50 nM.

As for `CN(C)c1nc(N[C@H]2CC[C@@H](NC(=O)NCc3ccc(Cl)cc3Cl)CC2)nc2ccccc12` [compound 78, N-(2,4-dichlorobenzyl)-N′-(cis-4-{[4-(dimethylamino)quinazolin-2-yl]amino}cyclohexyl)urea], the IC50 was less than 50 nM.

In the case of `Cc1ccc(NC(=O)N[C@H]2CC[C@@H](Nc3nc(N(C)C)c4ccccc4n3)CC2)cc1[N+](=O)[O-]` [compound 829], the IC50 was more than 200 nM.

`CN(C)c1nc(N[C@H]2CC[C@@H](NC(=S)Nc3cccc([N+](=O)[O-])c3)CC2)nc2ccccc12` [compound 188]: the IC50 is more than 200 nM.

Turning to `CC(NC(=O)NC1CCC(Nc2nc(N(C)C)c3ccccc3n2)CC1)c1cccc2ccccc12` (centres unmarked) [compound 67, 1-[4-(4-Dimethylamino-quinazolin-2-ylamino)-cyclohexyl]-3-(1-napthalen-1-yl-ethyl)-urea], the IC50 lay in the range of 50 to 200 nM.

On to `CCc1ccccc1NC(=O)N[C@H]1CC[C@@H](Nc2nc(N(C)C)c3ccccc3n2)CC1` [compound 95, N-(cis-4-{[4-(dimethylamino)quinazolin-2-yl]amino}cyclohexyl)-N′-(2-ethylphenyl)urea], for which the IC50 was less than 50 nM.

The assay is the same for the next values; noted with them: class by percent of control at 10^−7 M or by IC50; read-out: class.
Take `CN(C)c1nc(N[C@H]2CC[C@@H](C(=O)NCc3ccc(OC(F)(F)F)cc3)CC2)nc2cc(F)c(F)cc12` [Example 1004, cis-4-{[4-(dimethylamino)-6,7-difluoroquinazolin-2-yl]amino}-N-[4-(trifluoromethoxy)benzyl]cyclohexanecarboxamide]: the IC50 was less than 50 nM.

With `CN(C)c1nc(N[C@H]2CC[C@@H](C(=O)Nc3nc4ccccc4[nH]3)CC2)nc2ccccc12` [Example 1198, cis-N-1H-benzimidazol-2-yl-4-{[4-(dimethylamino)quinazolin-2-yl]amino}cyclohexanecarboxamide], the IC50 was more than 200 nM.

Consider `Cc1cccc(OCC(=O)N[C@H]2CC[C@@H](Nc3nc(N(C)C)c4ccccc4n3)CC2)c1` [Example 1079, N-(cis-4-{[4-(dimethylamino)quinazolin-2-yl]amino}cyclohexyl)-2-(3-methylphenoxy)acetamide], for which the IC50 is less than 50 nM.

With `CN(C)c1nc(N[C@H]2CC[C@@H](NC(=O)COc3ccc(F)cc3)CC2)nc2ccccc12` [Example 1078, N-(cis-4-{[4-(dimethylamino)quinazolin-2-yl]amino}cyclohexyl)-2-(4-fluorophenoxy)acetamide], the IC50 was less than 50 nM.

Regarding `CN(C)c1nc(N[C@H]2CC[C@@H](NC(=O)C(O)c3cccc(C(F)(F)F)c3)CC2)nc2ccccc12` (relative stereo) [Example 1112, N-(cis-4-{[4-(dimethylamino)quinazolin-2-yl]amino}cyclohexyl)-2-hydroxy-2-[3-(trifluoromethyl)phenyl]acetamide], the IC50 is less than 50 nM.

Turning to `CN(C)c1nc(NC[C@@H]2CC[C@H](NC(=O)c3ccc(F)cc3F)C2)nc2ccccc12` [Example 1133, N-[(1S,3R)-3-({[4-(dimethylamino)quinazolin-2-yl]amino}methyl)cyclopentyl]-2,4-difluorobenzamide], the IC50 is more than 200 nM.
